Marks after values point to notes of the source that are not given here.
Experiments:
Format in all cases: in vivo
Kunming mice [1] = test: Influence on autonomic activity of normal mice (ZIL-2 mice autonomic activity meter, counts within 10 min); conditions: intragastric, x ± s, n = 10; for Times of activities in 1 h after drug administration/10 min: 1 h after administration; for Times of activities in 2 h after drug administration/10 min: 2 h after administration; for Times of activities in 24 h after drug administration/10 min: 24 h after administration
Method in brief: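 Kunming mice (10 per group, half each sex) were dosed at 25, 50 or 100 mg/kg in 0.5% CMC-Na. Spontaneous activity counts over 10 min were recorded at 1 h, 2 h and 24 h post-dose. Groups were compared by ANOVA with Dunnett's test after Levene's check.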

Kunming mice [2] = test: Influence on hypnosis effect with pentobarbital sodium doses at the threshold (50 mg/kg i.p.); conditions: pentobarbital sodium 50 mg/kg i.p. 60 min later, x ± s, n = 10
Method in brief: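 Kunming mice (10/group, half each sex) received compound in 0.5% CMC-Na intragastrically at 25, 50 or 100 mg/kg; 60 min later given 0.3% sodium pentobarbital 50 mg/kg i.p. Sleep latency and duration recorded by loss of righting reflex over 1 min; ANOVA and χ2 for sleep incidence.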

Kunming mice [3] = test: Influence on hypnosis effect with pentobarbital sodium doses below the threshold (25 mg/kg i.p.); conditions: pentobarbital sodium 25 mg/kg i.p. 60 min later, sleep observed in 30 min, n = 10
Method in brief: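 Kunming mice (10 per group, half female) given single oral doses of 25, 50 or 100 mg/kg in 0.5% CMC-Na; 60 min later pentobarbital sodium 25 mg/kg i.p. Sleep (righting reflex lost >1 min) scored within 30 min as percentage asleep, χ2 test.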

[4] = 25 mg/kg intragastric single dose
[5] = 50 mg/kg intragastric single dose
[6] = 100 mg/kg intragastric single dose
[7] = test drug 25 mg/kg intragastric single dose
[8] = test drug 50 mg/kg intragastric single dose
[9] = test drug 100 mg/kg intragastric single dose

COc1cc(C2Oc3c(cc(OC)c(OC)c3OC)C(=O)C2OC)c(O)c(OC)c1OC (stereo not drawn) [Example 69, 6′-hydroxyl-3,6,7,8,3′,4′,5′-hepta methoxyl-flavanone]
Times of activities in 1 h after drug administration/10 min (Kunming mice [1]; 25 mg/kg): 322.3 ± 51.3 /10 min
Times of activities in 2 h after drug administration/10 min (Kunming mice [1]; 25 mg/kg): 278.3 ± 40.3 /10 min
Times of activities in 24 h after drug administration/10 min (Kunming mice [1]; 25 mg/kg): 299.1 ± 80.7 /10 min
Times of activities in 1 h after drug administration/10 min (Kunming mice [1]; 50 mg/kg): 298.0 ± 41.5 /10 min
Times of activities in 2 h after drug administration/10 min (Kunming mice [1]; 50 mg/kg): 251.7 ± 39.4 /10 min
Times of activities in 24 h after drug administration/10 min (Kunming mice [1]; 50 mg/kg): 309.1 ± 91.0 /10 min
Times of activities in 1 h after drug administration/10 min (Kunming mice [1]; 100 mg/kg): 289.3 ± 50.7 /10 min
Times of activities in 2 h after drug administration/10 min (Kunming mice [1]; 100 mg/kg): 235.8 ± 47.4 /10 min
Times of activities in 24 h after drug administration/10 min (Kunming mice [1]; 100 mg/kg): 320.4 ± 80.4 /10 min
duration of sleep (Kunming mice [2]; [4]): 31.77 ± 22.78 min
time to sleep (Kunming mice [2]; [4]): 4.98 ± 1.88 min
duration of sleep (Kunming mice [2]; [5]): 57.73 ± 18.49 min
time to sleep (Kunming mice [2]; [5]): 4.27 ± 1.62 min
duration of sleep (Kunming mice [2]; [6]): 64.09 ± 31.23 min
time to sleep (Kunming mice [2]; [6]): 3.87 ± 1.78 min
Number of sleeping animals (Kunming mice [3]; [7]): 3
rate of sleeping (%) (Kunming mice [3]; [7]): 30%
Number of sleeping animals (Kunming mice [3]; [8]): 5
rate of sleeping (%) (Kunming mice [3]; [8]): 50* %
Number of sleeping animals (Kunming mice [3]; [9]): 7
rate of sleeping (%) (Kunming mice [3]; [9]): 70** %

CCCc1cc(O)cc2c1C(=O)CC(c1ccc(-c3ccccc3)c([N+](=O)[O-])c1)O2 (stereo not drawn) [Example 70]
Times of activities in 1 h after drug administration/10 min (Kunming mice [1]; 25 mg/kg): 233.5 ± 58.2 /10 min
Times of activities in 2 h after drug administration/10 min (Kunming mice [1]; 25 mg/kg): 227.8 ± 32.9 /10 min
Times of activities in 24 h after drug administration/10 min (Kunming mice [1]; 25 mg/kg): 316.0 ± 66.9 /10 min
Times of activities in 1 h after drug administration/10 min (Kunming mice [1]; 50 mg/kg): 159.9 ± 45.0 /10 min
Times of activities in 2 h after drug administration/10 min (Kunming mice [1]; 50 mg/kg): 141.0 ± 46.3 /10 min
Times of activities in 24 h after drug administration/10 min (Kunming mice [1]; 50 mg/kg): 320.9 ± 81.4 /10 min
Times of activities in 1 h after drug administration/10 min (Kunming mice [1]; 100 mg/kg): 129.3 ± 41.3 /10 min
Times of activities in 2 h after drug administration/10 min (Kunming mice [1]; 100 mg/kg): 117.8 ± 39.6 /10 min
Times of activities in 24 h after drug administration/10 min (Kunming mice [1]; 100 mg/kg): 320.7 ± 60.9 /10 min
duration of sleep (Kunming mice [2]; [4]): 47.57 ± 18.97 min
time to sleep (Kunming mice [2]; [4]): 3.60 ± 1.69 min
duration of sleep (Kunming mice [2]; [5]): 61.38 ± 27.39 min
time to sleep (Kunming mice [2]; [5]): 3.21 ± 1.35 min
duration of sleep (Kunming mice [2]; [6]): 73.09 ± 25.56 min
time to sleep (Kunming mice [2]; [6]): 2.28 ± 1.13 min
Number of sleeping animals (Kunming mice [3]; [7]): 6
rate of sleeping (%) (Kunming mice [3]; [7]): 60** %
Number of sleeping animals (Kunming mice [3]; [8]): 8
rate of sleeping (%) (Kunming mice [3]; [8]): 80*** %
Number of sleeping animals (Kunming mice [3]; [9]): 9
rate of sleeping (%) (Kunming mice [3]; [9]): 90*** %

O=C1CC(c2ccc(O)c(O)c2)Oc2cc(O)cc(O)c21 (stereo not drawn) [Example 71]
Times of activities in 1 h after drug administration/10 min (Kunming mice [1]; 25 mg/kg): 301.5 ± 58.2 /10 min
Times of activities in 2 h after drug administration/10 min (Kunming mice [1]; 25 mg/kg): 267.8 ± 32.9 /10 min
Times of activities in 24 h after drug administration/10 min (Kunming mice [1]; 25 mg/kg): 318.0 ± 66.9 /10 min
Times of activities in 1 h after drug administration/10 min (Kunming mice [1]; 50 mg/kg): 278.9 ± 45.0 /10 min
Times of activities in 2 h after drug administration/10 min (Kunming mice [1]; 50 mg/kg): 263.0 ± 46.3 /10 min
Times of activities in 24 h after drug administration/10 min (Kunming mice [1]; 50 mg/kg): 322.9 ± 81.4 /10 min
Times of activities in 1 h after drug administration/10 min (Kunming mice [1]; 100 mg/kg): 249.3 ± 41.3 /10 min
Times of activities in 2 h after drug administration/10 min (Kunming mice [1]; 100 mg/kg): 245.8 ± 39.6 /10 min
Times of activities in 24 h after drug administration/10 min (Kunming mice [1]; 100 mg/kg): 325.7 ± 60.9 /10 min
duration of sleep (Kunming mice [2]; [4]): 30.48 ± 22.67 min
time to sleep (Kunming mice [2]; [4]): 5.55 ± 1.83 min
duration of sleep (Kunming mice [2]; [5]): 36.63 ± 20.19 min
time to sleep (Kunming mice [2]; [5]): 3.73 ± 1.39 min
duration of sleep (Kunming mice [2]; [6]): 56.62 ± 24.57 min
time to sleep (Kunming mice [2]; [6]): 3.82 ± 1.40 min
Number of sleeping animals (Kunming mice [3]; [7]): 3
rate of sleeping (%) (Kunming mice [3]; [7]): 30%
Number of sleeping animals (Kunming mice [3]; [8]): 5
rate of sleeping (%) (Kunming mice [3]; [8]): 50* %
Number of sleeping animals (Kunming mice [3]; [9]): 6
rate of sleeping (%) (Kunming mice [3]; [9]): 60** %
